Data on 21 compounds can be found in PubChem BioAssay (NCI).

Experiment in all cases: NCI tumour cell line growth inhibition, 48 h
In assay [1] the test system is NCI-H226 lung.
For assay [2], the system named is SNB-19 CNS.
Assay [3] deals with MCF7 breast.
The subject of assay [4] is A549 NSCLC.
Assay [5] has as its system HS 578T breast.
Assay [6] concerns T-47D breast.
The test system of assay [7] is HL-60(TB) leukemia.
Assay [8] has as its system K-562 leukemia.
The test system of assay [9] is HT29 colon.
In assay [10] the test system is NCI-H522 lung.
Assay [11] concerns HOP-62 NSCLC.
Assay [12] concerns COLO 205 colon.
The subject of assay [13] is SK-MEL-28 melanoma.
For assay [14], the system named is CCRF-CEM leukemia.
For assay [15], the system named is TK-10 renal.

The structures appear in SMILES notation.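 Cells were grown in 96-well plates and exposed to each compound for 48 hours at five concentrations; endpoints were interpolated linearly between bracketing concentrations, or set to the highest concentration if not reached. TGI marks complete inhibition of growth.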 A value given as a limit tells only on which side of the number the result lay.

On to `CO/N=C(/C)c1cccc(Nc2nc3ccccc3c3[nH]c4ccccc4c23)c1`, for which the TGI was determined as 33.2 µM in assay [1]; 26.7 µM in assay [2]; 19.9 µM in assay [3]; 24.7 µM in assay [4]; 35.8 µM in [5]; 6.9 µM in assay [6]. Further, the TGI was 53.3 µM in [7]; greater than 100 µM in assay [8]; 11.2 µM in [9]; 9.61 µM in [10]; 21.7 µM in assay [11]; 20.3 µM in assay [12].
For `CN1C/C(=C\c2cccs2)C(O)/C(=C/c2cccs2)C1` (configuration not stated), the TGI is greater than 100 µM in [1]; greater than 100 µM in assay [13]; greater than 100 µM in [2]; 52.7 µM in [14]; greater than 100 µM in [3]; greater than 100 µM in [4]. The TGI was greater than 100 µM in assay [5]; 74.2 µM in assay [6]; greater than 100 µM in assay [8]; greater than 100 µM in assay [9]; greater than 100 µM in [10]; greater than 100 µM in assay [15]. The TGI in [11] and in assay [12] was greater than 100 µM throughout.
As to `CCN1CCC(O)(c2ccc(Oc3ccc(F)cc3)cc2)C(C(=O)c2ccc(Oc3ccc(F)cc3)cc2)C1` (configuration not stated), the TGI was 29.5 µM in [1]; 30.5 µM in [13]; 29.6 µM in assay [2]; 28.1 µM in assay [14]; 26 µM in assay [3]; 29.5 µM in [4]. Moreover, the TGI in assay [5] was 38.4 µM; in assay [6], 30.9 µM; in [8], greater than 100 µM; in assay [9], 23.6 µM; in assay [15], 23.5 µM; in assay [11], 30.1 µM. The TGI in [12] came to 33.5 µM.
Turning to `Cc1cnc2sn(-c3ccc([N+](=O)[O-])cc3)c(=O)c2c1`, the TGI in assay [1], in assay [13], in assay [2], in assay [3], in assay [4] and in assay [5] was greater than 100 µM throughout. Besides, the TGI in assay [6] was greater than 100 µM; in assay [8] it was greater than 100 µM; in assay [9], greater than 100 µM; in assay [10], greater than 100 µM; in assay [15], greater than 100 µM; in assay [11] it was 52.4 µM. The compound further displayed a TGI in assay [12] greater than 100 µM.
Regarding `O=C(/C=C/c1ccc(-c2ccccc2)cc1)NCc1ccc(C(=O)NCc2ccccc2)cc1`, the TGI in assay [1], in [13], in assay [2], in [14], in [3] and in assay [4] was greater than 100 µM in each case. In addition, the TGI in assay [5], in [6], in [9], in assay [10], in assay [15] and in [11] was greater than 100 µM each time. The same compound yielded a TGI in assay [12] greater than 100 µM.
As for `c1cc2c(s1)-c1sccc1C21OCCO1`, the TGI in assay [1], in [13], in [2], in assay [14], in assay [3] and in [4] was greater than 100 µM each time. The TGI in assay [6] was 80.9 µM; in assay [7] it was greater than 100 µM; in assay [8], greater than 100 µM; in assay [9] it was greater than 100 µM; in [10], greater than 100 µM; in [15], greater than 100 µM. Also, the TGI in [11] and in assay [12] was greater than 100 µM each time.
Take `O=S(=O)(O)c1cc(N=Nc2c(O)ccc3ccccc23)ccc1/C=C/c1ccc(N=Nc2c(O)ccc3ccccc23)cc1S(=O)(=O)O`: the TGI in assay [1], in [13], in assay [2], in assay [4], in assay [5] and in assay [6] was greater than 100 µM throughout. The TGI in assay [8], in assay [9], in assay [10], in assay [15], in [11] and in [12] was greater than 100 µM throughout.
As to `CN1CN(c2ccccc2)C2(CCN(CC(C)(c3ccc(F)cc3)C3OCCCO3)CC2)C1=O` (configuration not stated), the TGI in assay [1] stood at 42.7 µM; in assay [13], 34.6 µM; in assay [2], 42 µM; in assay [14] it was 45.9 µM; in assay [3], 30.2 µM; in [4] it was 61.9 µM. Besides, the TGI is 56.2 µM in [6]; 33.7 µM in assay [7]; 38.6 µM in [8]; 27.3 µM in assay [9]; 33.6 µM in assay [10]; 31.9 µM in assay [15]. Further, the figures for the TGI in assay [11] and in assay [12] were 30.7 µM and 44.3 µM, respectively.
Turning to `CC1=NC2=Nc3nc(C)cc[n+]3CN2C=C1`, the TGI in assay [1], in assay [13], in assay [2], in assay [3], in assay [4] and in [5] was greater than 100 µM throughout. The TGI in [6], in assay [9], in assay [10], in [15], in [11] and in assay [12] was greater than 100 µM each time.
For `O=C(O)Cc1ccc(Nc2nc3cc(C(F)(F)F)ccc3nc2C(=O)O)cc1`, the TGI in assay [1], in assay [13], in assay [2], in [3], in assay [4] and in [5] was greater than 100 µM in each case. Also, the TGI in [6], in assay [7], in assay [9], in [10], in assay [15] and in [11] was greater than 100 µM throughout. In addition, the TGI in assay [12] was greater than 100 µM.
Take `O=C(/C=C/c1cccc(Oc2ccccc2)c1)NCc1ccc(C(=O)NCc2ccccc2)cc1`: the TGI is 88.1 µM in assay [1]; greater than 100 µM in assay [13]; greater than 100 µM in assay [2]; greater than 100 µM in assay [14]; greater than 100 µM in assay [3]; greater than 100 µM in [4]. The TGI in [5], in [6], in assay [8], in [9], in assay [10] and in assay [15] was greater than 100 µM in each case. Moreover, the TGI in [11] was 18.8 µM; in [12], greater than 100 µM.
With `CC(NC(=O)NC(C)(C)C)NC(=O)C(N)CC(=O)O` (configuration not stated), the TGI in assay [1], in assay [13], in [2], in assay [14], in [3] and in assay [4] was greater than 100 µM each time. The TGI in assay [5], in assay [6], in assay [8], in [9], in assay [10] and in assay [15] was greater than 100 µM in each case. For the same compound, the TGI in assay [11] and in [12] was greater than 100 µM throughout.
Consider `CC1(C)OC2[C@@H](CO[C@@]3([C@@H](O)CCO)OC(C)(C)O[C@@H]23)O1` (some centres not stated), for which the TGI in assay [1], in [13], in assay [2], in assay [14], in assay [3] and in [6] was greater than 100 µM in each case. The TGI in [7], in [8], in assay [9], in assay [10], in [15] and in [11] was greater than 100 µM in each case. For the same compound, the TGI in [12] is greater than 100 µM.
For `CCOC(=O)c1c(N=P(c2ccccc2)(c2ccccc2)c2ccccc2)nnc(-c2ccccc2)c1-c1ccccc1`, the TGI in [1], in [13], in assay [2], in [14], in assay [3] and in [4] was greater than 100 µM in each case. Besides, the TGI in assay [6], in assay [7], in assay [8], in [9], in assay [10] and in [15] was greater than 100 µM each time. The TGI in [11] and in assay [12] was greater than 100 µM each time.
As to `O=C1c2ccccc2C(=O)c2cc(N=Nc3c(O)ccc4ccccc34)ccc21`, the TGI in assay [1], in assay [13], in assay [2], in assay [14], in assay [4] and in assay [5] was greater than 100 µM throughout. Further, the TGI in assay [6], in [8], in assay [9], in assay [10], in [15] and in assay [11] was greater than 100 µM each time. Further, the TGI in assay [12] was greater than 100 µM.
Regarding `CCOC(=O)c1nnsc1N/N=C\c1ccc([N+](=O)[O-])cc1`, the TGI in assay [1], in [13], in assay [2], in [14], in [3] and in assay [4] was greater than 100 µM throughout. Also, the TGI in [5], in assay [6], in assay [8], in [9], in assay [10] and in assay [15] was greater than 100 µM each time. For the same compound, the TGI in [11] and in assay [12] was greater than 100 µM throughout.
Turning to `CN(C(=O)Cc1ccccc1)n1cnn(CC(=O)OC(C)(C)C)c1=S`, the TGI in [13], in [2], in assay [14], in [3], in assay [4] and in assay [5] was greater than 10 µM throughout. Further, the TGI in assay [6], in [8], in [9], in [10], in [15] and in assay [11] was greater than 10 µM in each case. The compound also gave a TGI in assay [12] greater than 10 µM.
Regarding `OC1(c2ccc(-c3ccccc3)cc2)c2ccccc2C2=NCCN21` (configuration not stated), the TGI is 62 µM in [1]; 80.6 µM in assay [13]; 38.3 µM in [2]; greater than 100 µM in assay [14]; greater than 100 µM in assay [4]; 75.4 µM in assay [5]. The TGI is greater than 100 µM in assay [6]; greater than 100 µM in [7]; greater than 100 µM in assay [8]; 50.3 µM in assay [9]; greater than 100 µM in [15]; 43.5 µM in assay [11]. In assay [12], the TGI came to 48.3 µM.
Regarding `O=C1c2cc(Cl)ccc2NC(=NC2CCCC2)C2CSCN12` (configuration not stated), the TGI in [1], in assay [13], in assay [2], in assay [14], in assay [3] and in [4] was greater than 100 µM each time. Also, the TGI in assay [5], in [6], in [8], in assay [9], in assay [10] and in assay [15] was greater than 100 µM in each case. The TGI in assay [11] and in assay [12] was greater than 100 µM in each case.
As to `CN(C)c1ccc(/C=C2\N=C(NNc3ccccc3)NC2=O)cc1`, the TGI in [13] was 71.4 µM; in assay [2], greater than 100 µM; in assay [14] it was greater than 100 µM; in assay [3], 41.9 µM; in assay [4], greater than 100 µM; in assay [5], greater than 100 µM. Besides, the TGI was 38.8 µM in assay [6]; greater than 100 µM in [9]; 57.1 µM in assay [10]; 67.2 µM in assay [15]; greater than 100 µM in assay [11]; 29 µM in assay [12].
Regarding `C/C(=N\N=C(\N)SB(F)F)c1ccc2ccccc2c1`, the TGI in assay [1] was greater than 100 µM; in assay [13] it was greater than 100 µM; in [2], greater than 100 µM; in assay [14], 56.7 µM; in assay [3], greater than 100 µM; in [4], greater than 100 µM. Further, the TGI is greater than 100 µM in [5]; greater than 100 µM in assay [6]; greater than 100 µM in [8]; greater than 100 µM in assay [9]; 72 µM in assay [10]; greater than 100 µM in [15]. Also, the TGI in [12] was greater than 100 µM.
